According to patent publication US12509424B2, “Compound and composition as PDGF receptor kinase inhibitor” (NIPPON SHINYAKU CO., LTD., priority 2019, dated 2025):

Tests used:
[1] = target: TEL-KIT fusion gene transfected cells (Ba/F3); assay: Suppression of proliferation of TEL-KIT fusion gene transfected Ba/F3 cells; conditions: read-out: KIT/BaF3 proliferation inhibition (IC50); TEL-KIT expressing Ba/F3 cells, 72 hours, final concentration 0.1 to 10,000 nM;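 note: viable cells quantified via formazan from tetrazolium reduction, inhibition scaled with 0.1% DMSO control as 0% and medium-only blank as 100%, IC50 from two-parameter logistic fit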
Excerpt: Fabrication of TEL-PDGFRβ and TEL-KIT Fusion Gene Transfected Cells
Subsequently, the vectors for gene transfection were introduced using a transfection reagent (FuGENE6, Promega Corporation) into packaging cells derived from a human fetal kidney cell line, PLAT-E, in the logarithmic growth phase. Since the culture supernatant of PLAT-E after the gene transfection contained virus particles for gene transfection, it was collected and used as a medium for gene transfection. The medium for gene transfection was added to a plate coated with RetroNectin and incubated, and the virus particles were allowed to adhere to the plate. Thereafter, the mouse pro-B cell line Ba/F3 in the logarithmic growth phase was seeded onto the plate and infected with the virus to fabricate cells that proliferate in a PDGFRβ or KIT dependent manner.
The test substance was prepared with dimethyl sulfoxide (DMSO) to 10 mM and diluted with DMSO so as to reach a concentration of 0.0001 to 3 mM. Furthermore, it was diluted by 100 times with distilled water.
Measurement of Suppression Action Against Proliferation of TEL-PDGFRβ or TEL-KIT Expressing Cells
The day after TEL-PDGFRβ and TEL-KIT expressing cells were seeded onto 96 well plates, the prepared test substance solution was added thereto with a final concentration being 0.1 to 10,000 nM. After 72 hours, the viable cell count was measured using the amount of formazan generated from the reduction of a tetrazolium salt compound by the mitochondrial dehydrogenase of viable cells as an indicator.
Based on the amount of formazan in each condition, the suppression rate against cell proliferation was calculated when the amounts of formazan in the negative control (0.1% DMSO solution) and Blank (medium only) were defined as 0% and 100%, respectively. Subsequently, a nonlinear regression analysis with a two parameter logistic model for the log dose and suppression rate against cell proliferation was carried out using the SAS system (SAS Institute Inc.) to estimate the IC50 value.

[2] = target: TEL-PDGFRβ fusion gene transfected cells (Ba/F3); assay: Suppression of proliferation of TEL-PDGFRβ fusion gene transfected Ba/F3 cells; assay type: cell-based, human; conditions: TEL-PDGFRβ expressing Ba/F3 cells, 72 hours, final concentration 0.1 to 10,000 nM; read-out: PDGFR β/BaF3 proliferation inhibition (IC50)
Excerpt: 2. Preparation of Test Substance
4. Analysis of Measurement Results

[3] = test system: pulmonary arterial smooth muscle cells; assay: Suppression of proliferation of pulmonary arterial smooth muscle cells (PDGF-BB stimulation, BrdU); assay type: cell-based; conditions: PASMC, 24 h; healthy human derived pulmonary arterial smooth muscle cells; human PDGF-BB 10 ng/mL stimulation; BrdU uptake after 1 day; test substance final concentration 3 to 10,000 nM; read-out: Human normal PASMC proliferation suppression (PDGF stimulation_IC50)
Outline: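 Test compound (final 3 to 10,000 nM) was added together with BrdU and PDGF-BB (final 10 ng/mL) to healthy human pulmonary artery smooth muscle cells held a day in 0.1% FBS. Proliferation was read after 1 day as anti-BrdU-detected BrdU incorporation.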

PDGFR-β = PDGFR-β (Homo sapiens (Human), UniProt P09619); assay: PDGFR-β tyrosine kinase inhibitory action (HTRF KinEASE-TK); assay type: biochemical; conditions: PDGFR-β enzyme 1 ng/μL, 30° C. for 30 minutes; read-out: PDGF-β IC50
Outline: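 Recombinant PDGFR-β at 1 ng/μL final with TK substrate-3-biotin in a substrate solution containing 0.6 μM ATP; buffer 50 mM HEPES pH 7.0, 5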

Chain of TEL-KIT fusion gene transfected cells (Ba/F3) (P10721 26-976 limits assumed, change not shown): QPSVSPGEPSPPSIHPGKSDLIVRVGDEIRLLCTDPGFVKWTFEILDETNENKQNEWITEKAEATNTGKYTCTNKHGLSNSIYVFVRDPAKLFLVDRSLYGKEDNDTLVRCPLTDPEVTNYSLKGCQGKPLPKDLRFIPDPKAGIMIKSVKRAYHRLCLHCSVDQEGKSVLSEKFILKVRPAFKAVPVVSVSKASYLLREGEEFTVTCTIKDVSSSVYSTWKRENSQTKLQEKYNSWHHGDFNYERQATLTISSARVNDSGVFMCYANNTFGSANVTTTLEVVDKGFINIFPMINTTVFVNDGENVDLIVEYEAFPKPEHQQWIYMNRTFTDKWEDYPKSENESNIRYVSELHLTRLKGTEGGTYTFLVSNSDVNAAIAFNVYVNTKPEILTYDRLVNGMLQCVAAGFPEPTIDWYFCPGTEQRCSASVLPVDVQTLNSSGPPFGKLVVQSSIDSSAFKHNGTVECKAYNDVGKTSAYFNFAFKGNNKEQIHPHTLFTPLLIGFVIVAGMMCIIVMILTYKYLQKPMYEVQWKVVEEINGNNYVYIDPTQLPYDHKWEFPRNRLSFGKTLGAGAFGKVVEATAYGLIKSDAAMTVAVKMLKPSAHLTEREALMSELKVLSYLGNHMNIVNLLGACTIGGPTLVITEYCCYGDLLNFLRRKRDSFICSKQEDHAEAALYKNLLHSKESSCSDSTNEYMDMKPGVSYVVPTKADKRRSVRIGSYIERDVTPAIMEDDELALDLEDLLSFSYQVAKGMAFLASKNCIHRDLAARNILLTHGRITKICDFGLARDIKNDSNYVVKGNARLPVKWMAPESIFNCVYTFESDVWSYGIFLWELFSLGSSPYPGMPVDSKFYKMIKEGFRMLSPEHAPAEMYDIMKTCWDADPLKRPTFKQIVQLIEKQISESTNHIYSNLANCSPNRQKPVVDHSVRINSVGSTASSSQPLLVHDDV
Chain of PDGFR-β (P09619 33-1106): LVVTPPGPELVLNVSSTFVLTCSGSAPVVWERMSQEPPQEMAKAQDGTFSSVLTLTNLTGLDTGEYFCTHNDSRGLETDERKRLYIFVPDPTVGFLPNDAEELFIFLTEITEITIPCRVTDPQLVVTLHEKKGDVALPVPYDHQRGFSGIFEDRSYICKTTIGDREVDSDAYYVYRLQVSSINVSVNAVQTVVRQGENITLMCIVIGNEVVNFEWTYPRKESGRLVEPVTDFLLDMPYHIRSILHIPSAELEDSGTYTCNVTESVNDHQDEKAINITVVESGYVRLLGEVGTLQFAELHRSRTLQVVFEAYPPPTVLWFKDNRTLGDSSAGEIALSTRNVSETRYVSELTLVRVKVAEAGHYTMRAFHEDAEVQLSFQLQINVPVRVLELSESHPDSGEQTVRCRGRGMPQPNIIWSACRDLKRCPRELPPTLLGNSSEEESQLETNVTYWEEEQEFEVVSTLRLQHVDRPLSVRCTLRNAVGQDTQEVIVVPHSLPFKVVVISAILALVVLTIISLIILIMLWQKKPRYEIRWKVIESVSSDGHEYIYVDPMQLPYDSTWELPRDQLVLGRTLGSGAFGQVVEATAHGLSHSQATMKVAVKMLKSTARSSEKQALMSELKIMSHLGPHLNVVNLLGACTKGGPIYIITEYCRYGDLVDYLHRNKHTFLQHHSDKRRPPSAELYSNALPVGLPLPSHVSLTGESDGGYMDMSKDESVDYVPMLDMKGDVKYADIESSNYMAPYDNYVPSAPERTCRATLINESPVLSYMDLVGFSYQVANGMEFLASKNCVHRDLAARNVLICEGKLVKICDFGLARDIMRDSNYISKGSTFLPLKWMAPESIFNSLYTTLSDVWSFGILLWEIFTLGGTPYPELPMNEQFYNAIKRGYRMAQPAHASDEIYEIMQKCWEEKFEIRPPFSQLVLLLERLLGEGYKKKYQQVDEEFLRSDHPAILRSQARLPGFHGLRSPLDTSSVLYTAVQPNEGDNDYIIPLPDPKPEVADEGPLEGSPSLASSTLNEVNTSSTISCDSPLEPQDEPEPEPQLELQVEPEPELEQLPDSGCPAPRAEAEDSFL
Chain of TEL-PDGFRβ fusion gene transfected cells (Ba/F3) (P09619 33-1106 limits assumed, change not shown): as the sequence (P09619 33-1106) above

IC50 [1] | IC50 [2] | IC50 (PDGFR-β) | Structure (SMILES) | IC50 [3]
1200 nM | 4.6 nM | 43 nM | Cc1ccc(C(=O)N[C@H]2CCCC[C@@H]2O)cc1NC(=O)c1cnc(NC2(C)CCC2)s1 [Example 40, N-(5-{[(1S,2S)-2-hydroxycyclohexyl]carbamoyl}-2-methylphenyl)-2-[(1-methylcyclobutyl)amino]-1,3-thiazole-5-carboxamide] | 75 nM
2100 nM | 35 nM | 130 nM | Cc1ccc(C(=O)N[C@H]2CCCC[C@@H]2O)cc1NC(=O)c1cnc(NCC(C)(C)C)s1 [Example 41, 2-[(2,2-dimethylpropyl)amino]-N-(5-{[(1S,2S)-2-hydroxycyclohexyl]carbamoyl}-2-methylphenyl)-1,3-thiazole-5-carboxamide] | 210 nM
7900 nM | 41 nM | 230 nM | Cc1ccc(C(=O)N[C@H]2CCCC[C@@H]2O)cc1NC(=O)c1cncc(-c2cc(F)c(F)c(F)c2)c1 [Example 42, N-(5-{[(1S,2S)-2-hydroxycyclohexyl]carbamoyl}-2-methylphenyl)-5-(3,4,5-trifluorophenyl)pyridine-3-carboxamide] | 95 nM
640 nM | 17 nM | 23 nM | Cc1ccc(C(=O)N[C@H]2CCCC[C@@H]2O)cc1NC(=O)c1cncc(-c2ccc(C3CC3)cc2)c1 [Example 43, 5-(4-cyclopropylphenyl)-N-(5-{[(1S,2S)-2-hydroxycyclohexyl]carbamoyl}-2-methylphenyl)pyridine-3-carboxamide] | 72 nM
940 nM | 21 nM | 190 nM | O=C(Nc1cc(C(=O)N[C@H]2CCCC[C@@H]2O)ccc1Cl)c1cncc(OCC2CC2)c1 [Example 44, N-(2-chloro-5-{[(1S,2S)-2-hydroxycyclohexyl]carbamoyl}phenyl)-5-(cyclopropylmethoxy)pyridine-3-carboxamide] | 140 nM
92 nM | 0.8 nM | 15 nM | Cc1ccc(C(=O)N[C@H]2CCCC[C@@H]2O)cc1NC(=O)c1cnc2sccn12 [Example 45, N-(5-{[(1S,2S)-2-hydroxycyclohexyl]carbamoyl}-2-methylphenyl)imidazo[2,1-b][1,3]thiazole-5-carboxamide] | 56 nM
410 nM | 17 nM | 77 nM | Cc1c(F)cc(C(=O)N[C@H]2CCCC[C@@H]2O)cc1NC(=O)c1cncc(OCC2CC2)c1 [Example 46, 5-(cyclopropylmethoxy)-N-(3-fluoro-5-{[(1S,2S)-2-hydroxycyclohexyl]carbamoyl}-2-methylphenyl)pyridine-3-carboxamide] | 370 nM
7000 nM | 75 nM | 390 nM | Cc1ccc(C(=O)N[C@H]2CCCC[C@@H]2O)cc1NC(=O)c1cncc(OC2CC(F)(F)C2)c1 [Example 47, 5-[(3,3-difluorocyclobutyl)oxy]-N-(5-{[(1S,2S)-2-hydroxycyclohexyl]carbamoyl}-2-methylphenyl)pyridine-3-carboxamide] | 350 nM
650 nM | 16 nM | 120 nM | Cc1c(F)cc(C(=O)N[C@H]2CCCC[C@@H]2O)cc1NC(=O)c1cnc(CC2CC2)s1 [Example 48, 2-(cyclopropylmethyl)-N-(3-fluoro-5-{[(1S,2S)-2-hydroxycyclohexyl]carbamoyl}-2-methylphenyl)-1,3-thiazole-5-carboxamide] | 310 nM
6900 nM | 440 nM | 51 nM | O=C(N[C@H]1CCCC[C@@H]1O)c1ccc(Cl)c(C#Cc2cncc(Br)c2)c1 [Example 57, 3-[(5-bromopyridin-3-yl)ethynyl]-4-chloro-N-[(1S,2S)-2-hydroxycyclohexyl]benzamide] | 420 nM
1800 nM | 110 nM | 12 nM | O=C(N[C@H]1CCCC[C@@H]1O)c1ccc(Cl)c(C#Cc2cncc(-c3ccccc3)c2)c1 [Example 58, 4-chloro-N-[(1S,2S)-2-hydroxycyclohexyl]-3-[(5-phenylpyridin-3-yl)ethynyl]benzamide] | 57 nM
500 nM | 27 nM | 210 nM | Cc1cncc(C#Cc2cc(C(=O)N[C@H]3CCCC[C@@H]3O)ccc2C)c1 [Example 59, N-[(1S,2S)-2-hydroxycyclohexyl]-4-methyl-3-[(5-methylpyridin-3-yl)ethynyl]benzamide] | 93 nM
840 nM | 18 nM | 41 nM | Cc1ccc(C(=O)N[C@H]2CCCC[C@@H]2O)cc1C#Cc1cncc(Br)c1 [Example 61, 3-[(5-bromopyridin-3-yl)ethynyl]-N-[(1S,2S)-2-hydroxycyclohexyl]-4-methylbenzamide] | 18 nM
87 nM | 1.7 nM | 6.5 nM | Cc1ccc(C(=O)N[C@H]2CCCC[C@@H]2O)cc1C#Cc1cncc(-c2ncccn2)c1 [Example 62, N-[(1S,2S)-2-hydroxycyclohexyl]-4-methyl-3-{[5-(pyrimidin-2-yl)pyridin-3-yl]ethynyl}benzamide] | 34 nM
240 nM | 0.8 nM | 15 nM | Cc1ccc(C(=O)N[C@H]2CCCC[C@@H]2O)cc1C#Cc1cncc(-c2cnccn2)c1 [Example 63, N-[(1S,2S)-2-hydroxycyclohexyl]-4-methyl-3-{[5-(pyrazin-2-yl)pyridin-3-yl]ethynyl}benzamide] | 10 nM
230 nM | 5.9 nM | 260 nM | O=C(N[C@H]1CCCC[C@@H]1O)c1ccc(Cl)c(C#Cc2cncc(-c3ncccn3)c2)c1 [Example 64, 4-chloro-N-[(1S,2S)-2-hydroxycyclohexyl]-3-{[5-(pyrimidin-2-yl)pyridin-3-yl]ethynyl}benzamide] | 92 nM
270 nM | 14 nM | 94 nM | Cc1ccc(C(=O)N[C@H]2CCCC[C@@H]2O)cc1C#Cc1ccc(N)nc1 [Example 65, 3-[(6-aminopyridin-3-yl)ethynyl]-N-[(1S,2S)-2-hydroxycyclohexyl]-4-methylbenzamide] | 60 nM
100 nM | 2.5 nM | 5.4 nM | Cc1ccc(C(=O)N[C@H]2CCCC[C@@H]2O)cc1C#Cc1cncc(-c2ccccn2)c1 [Example 66, 3-[([2,3′-bipyridin]-5′-yl)ethynyl]-N-[(1S,2S)-2-hydroxycyclohexyl]-4-methylbenzamide] | 30 nM
300 nM | 5.2 nM | 43 nM | Cc1ccc(C(=O)N[C@H]2CCCC[C@@H]2O)cc1C#Cc1cncc(C2CC2)c1 [Example 67, 3-[(5-cyclopropylpyridin-3-yl)ethynyl]-N-[(1S,2S)-2-hydroxycyclohexyl]-4-methylbenzamide] | 120 nM
2000 nM | 16 nM | 80 nM | Cc1ccc(C(=O)N[C@H]2CCCC[C@@H]2O)cc1C#Cc1cncc(C2CC2)n1 [Example 68, 3-[(6-cyclopropylpyrazin-2-yl)ethynyl]-N-[(1S,2S)-2-hydroxycyclohexyl]-4-methylbenzamide] | 72 nM
330 nM | 5.8 nM | 25 nM | Cc1ccc(C(=O)N[C@H]2CCCC[C@@H]2O)cc1C#Cc1cncc(-c2ccccc2F)n1 [Example 69, 3-{[6-(2-fluorophenyl)pyrazin-2-yl]ethynyl}-N-[(1S,2S)-2-hydroxycyclohexyl]-4-methylbenzamide] | 61 nM
300 nM | 1.8 nM | 20 nM | Cc1ccc(C(=O)N[C@H]2CCCC[C@@H]2O)cc1C#Cc1cncc(-c2cccc(F)c2)n1 [Example 70, 3-{[6-(3-fluorophenyl)pyrazin-2-yl]ethynyl}-N-[(1S,2S)-2-hydroxycyclohexyl]-4-methylbenzamide] | 50 nM
570 nM | 6 nM | 42 nM | Cc1ccc(C(=O)N[C@H]2CCCC[C@@H]2O)cc1C#Cc1cncc(-c2ccc(F)cc2)n1 [Example 71, 3-{[6-(4-fluorophenyl)pyrazin-2-yl]ethynyl}-N-[(1S,2S)-2-hydroxycyclohexyl]-4-methylbenzamide] | 43 nM
570 nM | 27 nM | 51 nM | Cc1ccc(C(=O)N[C@H]2CCCC[C@@H]2O)cc1Nc1ccnc(-c2cccnc2)n1 [Example 78, N-[(1S,2S)-2-hydroxycyclohexyl]-4-methyl-3-{[2-(pyridin-3-yl)pyrimidin-4-yl]amino}benzamide] | 150 nM
2000 nM | 46 nM | 120 nM | Cc1ccc(C(=O)N[C@H]2CCCC[C@@H]2O)cc1Nc1ccnc(-c2cncc3ccccc23)n1 [Example 79, N-[(1S,2S)-2-hydroxycyclohexyl]-3-{[2-(isoquinolin-4-yl)pyrimidin-4-yl]amino}-4-methylbenzamide] | 170 nM
